Data on twelve compounds can be found in patent US20250171495A1, “MUTLI-TARGETED SERINE PROTEASE INHIBITORS FOR TREATMENT OF CANCER AND VIRAL INFECTION” (Washington University, priority 2023, published 2025).

Like-named read-outs stand apart in the source and are kept apart here.

What all share (format): biochemical
In one assay the target is T1, Factor Xa (Homo sapiens, UniProt P00742).
T1 construct: TMPRSS2; Matriptase; Hepsin; HGFA; Thrombin; Factor Xa
In words: Fluorogenic assay, Factor Xa. To be noted: read-out: Factor Xa IC50.

In the next assay the target is T2, matriptase (Homo sapiens, UniProt Q9Y5Y6).
T2 construct: purchased R&D Systems 3946-SEB-010
T2 sequence (Q9Y5Y6 615-855 limits assumed): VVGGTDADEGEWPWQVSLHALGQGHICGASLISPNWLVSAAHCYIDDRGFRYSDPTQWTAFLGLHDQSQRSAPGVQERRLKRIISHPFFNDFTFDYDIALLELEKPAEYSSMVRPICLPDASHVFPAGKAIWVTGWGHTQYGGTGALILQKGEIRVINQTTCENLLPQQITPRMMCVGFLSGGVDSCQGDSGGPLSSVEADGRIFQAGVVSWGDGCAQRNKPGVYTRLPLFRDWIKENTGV
The assay can be described thus: Fluorogenic kinetic enzyme inhibitor assay, matriptase.

The target of another assay is TMPRSS2 (Homo sapiens, UniProt O15393). In words: Fluorogenic kinetic enzyme inhibitor assay, TMPRSS2. Further details: purchased Cusabio Technology CSB-YP023924HU. The conditions noted are these: read-out: TMPRSS2 IC50.
TMPRSS2, sequence (O15393 106-492 limits assumed): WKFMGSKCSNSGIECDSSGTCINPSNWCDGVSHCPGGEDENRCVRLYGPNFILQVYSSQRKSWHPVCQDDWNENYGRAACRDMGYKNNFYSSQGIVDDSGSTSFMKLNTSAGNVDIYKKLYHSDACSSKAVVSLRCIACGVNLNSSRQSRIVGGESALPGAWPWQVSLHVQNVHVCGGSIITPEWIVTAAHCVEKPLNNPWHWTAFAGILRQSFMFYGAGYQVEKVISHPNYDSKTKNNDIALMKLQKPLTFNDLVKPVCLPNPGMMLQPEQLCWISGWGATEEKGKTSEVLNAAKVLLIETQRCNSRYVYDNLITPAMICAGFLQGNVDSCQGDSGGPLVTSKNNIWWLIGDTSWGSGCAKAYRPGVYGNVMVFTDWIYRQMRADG
A further assay addresses T3, HGFA (Homo sapiens, UniProt Q04756).
T3 construct: purchased R&D Systems 1514-SE-010
T3 sequence (Q04756 408-655 limits assumed): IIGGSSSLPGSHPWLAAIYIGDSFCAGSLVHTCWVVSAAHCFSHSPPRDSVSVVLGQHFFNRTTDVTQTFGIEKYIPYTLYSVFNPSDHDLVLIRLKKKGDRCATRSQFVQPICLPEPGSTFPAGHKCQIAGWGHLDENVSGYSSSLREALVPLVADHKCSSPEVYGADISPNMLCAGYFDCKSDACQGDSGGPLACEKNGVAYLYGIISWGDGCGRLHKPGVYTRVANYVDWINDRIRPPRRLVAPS
T3 sequence (Q04756 373-407 partner limits assumed): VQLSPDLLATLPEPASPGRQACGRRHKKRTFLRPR
In words: Fluorogenic kinetic enzyme inhibitor assay, HGFA. The conditions noted are these: read-out: HGFA IC50.

The target in another assay is T4, hepsin (Homo sapiens, UniProt P05981).
T4 construct: purchased R&D Systems 4776-SE-010
T4 sequence (P05981 163-417 limits assumed): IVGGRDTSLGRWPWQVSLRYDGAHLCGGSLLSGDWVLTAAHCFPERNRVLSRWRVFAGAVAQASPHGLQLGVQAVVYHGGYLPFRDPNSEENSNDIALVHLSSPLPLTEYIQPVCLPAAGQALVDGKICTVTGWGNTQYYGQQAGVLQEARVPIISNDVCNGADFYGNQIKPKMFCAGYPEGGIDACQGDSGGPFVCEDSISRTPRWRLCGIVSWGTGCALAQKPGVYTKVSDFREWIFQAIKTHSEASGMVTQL
T4 sequence (P05981 1-162 partner limits assumed): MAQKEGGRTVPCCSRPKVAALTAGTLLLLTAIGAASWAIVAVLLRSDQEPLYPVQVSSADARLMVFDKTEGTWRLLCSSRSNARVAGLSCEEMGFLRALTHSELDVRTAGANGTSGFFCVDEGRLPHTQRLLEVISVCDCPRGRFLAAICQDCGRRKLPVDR
The assay can be described thus: Fluorogenic kinetic enzyme inhibitor assay, hepsin. To be noted: read-out: Hepsin IC50.

The target in the next assay is Thrombin (Homo sapiens, UniProt P00734). In words: Fluorogenic assay, thrombin.

T1 sequence (P00742 235-488 limits assumed): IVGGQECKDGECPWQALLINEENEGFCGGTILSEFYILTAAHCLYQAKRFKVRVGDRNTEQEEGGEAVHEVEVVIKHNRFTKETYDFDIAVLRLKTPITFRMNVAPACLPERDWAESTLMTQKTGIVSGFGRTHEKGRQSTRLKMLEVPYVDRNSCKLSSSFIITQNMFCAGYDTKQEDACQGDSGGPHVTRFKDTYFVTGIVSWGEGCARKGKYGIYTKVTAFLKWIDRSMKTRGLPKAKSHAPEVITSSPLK
T1 sequence (P00742 41-179 partner limits assumed): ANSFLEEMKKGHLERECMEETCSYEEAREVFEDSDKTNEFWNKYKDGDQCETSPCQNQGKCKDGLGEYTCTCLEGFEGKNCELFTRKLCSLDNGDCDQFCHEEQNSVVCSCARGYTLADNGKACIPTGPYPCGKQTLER

Consider `N=C(N)NCCC[C@H](NC(=O)[C@H](Cc1ccccc1)NC(=O)[C@H](CCC(N)=O)NC(=O)Cc1ccccc1)C(=O)c1nc2ccccc2s1` [CA1018, N-[(S)-1-[N-(S)-1-[(1,3-benzothiazol-2-yl)carbonyl]-4-guanidinobutylcarbamoyl]-2-phenylethyl](S)-2-(benzylcarbonylamino) glutaramide], for which the IC50 was 212 nM on Factor Xa; 0.99 nM at matriptase (read-out: Matriptase IC50); 0.407 nM on TMPRSS2; 75.2 nM on HGFA; 0.65 nM at hepsin; above 20000 nM on Thrombin.
As for `N=C(N)NCCC[C@@H](NC(=O)[C@H](Cc1ccccc1)NC(=O)[C@H](CCC(N)=O)NCc1ccccc1)C(=O)c1nc2ccccc2s1` [CA1022-1, N-[(S)-1-[N-(R)-1-[(1,3-benzothiazol-2-yl)carbonyl]-4-guanidinobutylcarbamoyl]-2-phenylethyl](S)-2-benzylaminoglutaramide], the IC50 was 442 nM at Factor Xa; 8.8 nM on matriptase (read-out: Matriptase IC50); 2.35 nM at TMPRSS2; 1300 nM at HGFA; 0.83 nM on hepsin; above 20000 nM at Thrombin.
For the compound `N=C(N)NCCC[C@H](NC(=O)[C@H](Cc1ccccc1)NC(=O)[C@H](CCC(N)=O)NCc1ccccc1)C(=O)c1nc2ccccc2s1` [CA1022-2, N-[(S)-1-[N-(S)-1-[(1,3-benzothiazol-2-yl)carbonyl]-4-guanidinobutylcarbamoyl]-2-phenylethyl](S)-2-benzylaminoglutaramide], the IC50 is 40 nM on Factor Xa; 2.31 nM on matriptase (read-out: Matriptase IC50); 0.993 nM at TMPRSS2; 50.4 nM at HGFA; 0.2 nM at hepsin; above 20000 nM at Thrombin.
For the compound `N=C(N)NCCC[C@@H](NC(=O)[C@H](Cc1ccccc1)NC(=O)[C@H](CCC(N)=O)NCCc1ccccc1)C(=O)c1nc2ccccc2s1` [CA1033-1, N-[(S)-1-[N-(R)-1-[(1,3-benzothiazol-2-yl)carbonyl]-4-guanidinobutylcarbamoyl]-2-phenylethyl](S)-2-(phenethylamino)glutaramide], the half-maximal inhibitory concentration (IC50) was 16800 nM on Factor Xa; 77.9 nM at matriptase (read-out: Matriptase IC50); 16.6 nM at TMPRSS2; 2870 nM at HGFA; 9.43 nM at hepsin; above 20000 nM on Thrombin.
As to `N=C(N)NCCC[C@H](NC(=O)[C@H](Cc1ccccc1)NC(=O)[C@H](CCC(N)=O)NCCc1ccccc1)C(=O)c1nc2ccccc2s1` [CA1033-2, N-[(S)-1-[N-(S)-1-[(1,3-benzothiazol-2-yl)carbonyl]-4-guanidinobutylcarbamoyl]-2-phenylethyl](S)-2-(phenethylamino)glutaramide], the IC50 at Factor Xa was 1060 nM; on matriptase (read-out: Matriptase IC50) it was 2.81 nM; on TMPRSS2, 0.316 nM; at HGFA, 48.5 nM; at hepsin it was 0.3 nM; on Thrombin it was 10200 nM.
With `CN(C)[C@@H](CCC(N)=O)C(=O)N[C@@H](Cc1ccccc1)C(=O)N[C@H](CCCNC(=N)N)C(=O)c1nc2ccccc2s1` [CA1041-1, N-[(S)-1-[N-(R)-1-[(1,3-benzothiazol-2-yl)carbonyl]-4-guanidinobutylcarbamoyl]-2-phenylethyl](S)-2-(dimethylamino)glutaramide], the IC50 is 7010 nM on Factor Xa; 144 nM on matriptase (read-out: Matriptase IC50); 18.4 nM at TMPRSS2; above 20000 nM on HGFA; 123 nM at hepsin; above 20000 nM against Thrombin.
With `CN(C)[C@@H](CCC(N)=O)C(=O)N[C@@H](Cc1ccccc1)C(=O)N[C@@H](CCCNC(=N)N)C(=O)c1nc2ccccc2s1` [CA1041-2, N-[(S)-1-[N-(S)-1-[(1,3-benzothiazol-2-yl)carbonyl]-4-guanidinobutylcarbamoyl]-2-phenylethyl](S)-2-(dimethylamino)glutaramide], the IC50 was 3300 nM at Factor Xa; 3.5 nM at matriptase (read-out: Matriptase IC50); 0.86 nM on TMPRSS2; 609 nM at HGFA; 1.89 nM on hepsin; above 20000 nM on Thrombin.
Take `N=C(N)NCCC[C@H](NC(=O)[C@H](Cc1ccccc1)NC(=O)[C@H](CCC(N)=O)NC(=O)c1ccccc1)C(=O)c1nc2ccccc2s1` [CA1043]: the IC50 is 1590 nM at Factor Xa; 0.88 nM at matriptase (read-out: Matriptase IC50); 0.081 nM on TMPRSS2; 8.45 nM on HGFA; 0.11 nM at hepsin; above 20000 nM on Thrombin.
Consider `N=C(N)NCCC[C@@H](NC(=O)[C@H](Cc1ccccc1)NC(=O)[C@H](CCC(N)=O)N1CCCCC1)C(=O)c1nc2ccccc2s1` [CA1046-1, N-[(S)-1-[N-(R)-1-[(1,3-benzothiazol-2-yl)carbonyl]-4-guanidinobutylcarbamoyl]-2-phenylethyl](S)-2-piperidinoglutaramide], for which the IC50 on Factor Xa is 12200 nM; at matriptase (read-out: Matriptase IC50), 1780 nM; on TMPRSS2 it was 69.2 nM; on HGFA it was above 20000 nM; at hepsin, 105 nM; on Thrombin it was above 20000 nM.
With `N=C(N)NCCC[C@H](NC(=O)[C@H](Cc1ccccc1)NC(=O)[C@H](CCC(N)=O)N1CCCCC1)C(=O)c1nc2ccccc2s1` [CA1046-2, N-[(S)-1-[N-(S)-1-[(1,3-benzothiazol-2-yl)carbonyl]-4-guanidinobutylcarbamoyl]-2-phenylethyl](S)-2-piperidinoglutaramide], the IC50 at Factor Xa is 2070 nM; at matriptase (read-out: Matriptase IC50), 41.4 nM; on TMPRSS2, 8.23 nM; on HGFA it was 704 nM; on hepsin, 0.37 nM; against Thrombin, above 20000 nM.
Regarding `CC(=O)N[C@H]1CCCCn2cc(nn2)C[C@H](C(=O)N[C@H](CCCNC(=N)N)C(=O)c2nc3ccccc3s2)NC(=O)[C@H](CC(C)C)NC1=O` [VD4118A, N-[(R)-1-[(1,3-benzothiazol-2-yl)carbonyl]-4-guanidinobutyl]-(6S,9S,12R)-6-acetylamino-9-isobutyl-7,10-dioxo-1,8,11,15,16-pentaazabicyclo[12.2.1]heptadeca-14(17),15-diene-12-carboxamide], the IC50 at Factor Xa is 1930 nM; on matriptase, 19.6 nM; on HGFA, 15600 nM; at hepsin, 117 nM; against Thrombin it was above 20000 nM.
The corresponding values for `CC(=O)N[C@H]1Cc2ccc(cc2)OCCCC[C@@H](C(=O)N[C@H](CCCNC(=N)N)C(=O)c2nc3ccccc3s2)NC(=O)[C@@H](Cc2c[nH]c3ccccc23)NC1=O` [VD4162A, N-[(R)-1-[(1,3-benzothiazol-2-yl)carbonyl]-4-guanidinobutyl]-(7S,10R,13S)-13-acetylamino-10-[(3-indolyl)methyl]-9,12-dioxo-2-oxa-8,11-diazabicyclo[13.2.2]nonadeca-1(17),15,18-triene-7-carboxamide] are 7470 nM, 30.8 nM, 52 nM, 3.05 nM and above 20000 nM.
